In patent US20050256134A1, “Use of creatine analogues and creatine kinase modulators for the prevention and treatment of glucose metabolic disorders” (AVICENA GROUP, INC., priority 1995, published 2005):

System: Male Zuker diabetic fatty (ZDF-fa/fa) rats
Experiment: Creatine compounds as 1% of the diet, glucose and insulin levels in diabetic rats
Format: in vivo, rat
Description: This preliminary study was initiated to gain insight into the potential regulation of glucose levels by creatine compounds in ZDF rats, a widely studied rodent model of NIDDM (Peterson, Lessons from Animal Diabetes, 1994, Pages 225-230). Male Zuker diabetic fatty (ZDF-fa/fa) rats and their lean Zuker littermates (ZDF +/?) were from Genetic Models, Inc., Indianapolis, Ind. […] Hyperglycemia is initially manifested at about 7 weeks of age and all obese rats are fully diabetic by 12 weeks of age (fed blood glucose of greater than 500 mg %). This level of hyperglycemia increases slightly for several weeks thereafter. Between 7 and 10 weeks, blood insulin levels are high but these subsequently drop as the pancreatic beta cells cease to respond to the glucose stimulus. The lean (ZDF/Gmi) rats are the control counterparts of the diabetic animals. These rats have the same genetics as the obese animals except for the obesity trait. No phenotypic differences have been observed between these rats and other typical lean control rats.
Male Zuker diabetic fatty (ZDF-fa/fa) rats and Zuker lean littermates (ZDF +/?) were 12 weeks old when dosing with creatine compounds was initiated. The ZDF-fa/fa rats were completely diabetic. The littermates were the same age. […] Animals were bled regularly throughout the experiment and glucose and insulin levels were determined using standard procedures (Linco RI-13K). […]

SMILES: NC1=NCCN1CC(=O)O [cyclocreatine]
- drop in glucose levels (obese diabetic animals, vs Day 0, n=3): ~20%
- effect on insulin levels (obese fatty animals): minimally affected
